Holding throughout (assay type): cell-based, human
The subject of assay [1] is EPO-induced JAK2 signal pathway. The experiment in a line: EPO-induced proliferation of UT-7 cells (JAK2 signal). Particulars: UT-7 cell proliferation, EPO 10 ng/mL, 72 hours, read-out: Inhibition activity IC50 on EPO-induced JAK2 signal pathway. In a few lines: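 UT-7 cells (15000/well) stimulated with 10 ng/mL human recombinant EPO plus compound at final 0, 100, 1000 or 10000 nM, 72 h at 37° C., 5% CO2. Proliferation by alamarBlue fluorescence (Ex530/Em590); inhibition normalised to no-cytokine/no-compound (0) and EPO-only (100) wells, […] derived from dose-inhibition.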

Assay [2] concerns IL-10-induced JAK1/TYK2 signal pathway. The experiment in a line: IL-10-induced JAK1/TYK2 signal pathway STAT3-Luc reporter gene assay in U2OS cells. The settings on record: U2OS cells, STAT3-Luc reporter, IL-10 10 ng/mL, read-out: Half inhibition dose (IC50) on IL-10-induced JAK1/TYK2 signal pathway. The text has this:
Cytokine IL-10 is one of the main members of IL-10 family. The receptor that cytokine IL-10 binds to consists of two kinds of subunits, i.e., IL-10R1 and IL-10R2, which respectively couple with JAK1 and TYK2. After the coupling of IL-10 with its receptor, interaction of phosphorylation occurs between JAK1 and TYK2 to form STAT3 docking site for phosphorylation of STAT3. The phosphorylated STAT3 enters the nucleus and drives the transcription and expression of downstream genes.
The reporter gene plasmid STAT3-Luc Reporter used in the present invention has luciferase expression sequence as the reporter gene, upstream of which is a promoter sequence containing multiple STAT3 binding sites. When phosphorylated STAT3 induced by IL-10 signal pathway binds to the promoter of STAT3-Luc Reporter plasmid, luciferase is transcribed and expressed. The excitation fluorescence catalyzed by Luciferase can be detected after the addition of […] substrate, whose intensity can quantitively reflect the activation level of the signal pathway.
Human osteosarcoma cell line U20S was commercially available from American Type Culture Collection (ATCC), and relevant culture conditions referred to those from ATCC. It was known that such cell line could express IL-10R2, JAK1, TYK2 and STAT3, therefore, by exogenous expression of IL-10R1 gene, a complete IL-10 signal pathway could be established. The human IL-10R1 subunit overexpression plasmid pCMV3-IL10RA-EGFP was constructed by Shanghai Genechem Co., Ltd., and capable of simultaneously expressing enhanced green fluorescent protein. In the subsequent detection and calculation, the signal of green fluorescent protein in the tested sample was used as a reference for transfection efficiency calibration of the luciferase reporter gene signal. Reporter plasmid STAT3-Luc Reporter was commercially available from Ji Man Biotech (Shanghai) Co., Ltd.
X-tremeGENE 9 DNA Transfection Reagent (Roche) was used for the transfection of plasmid DNA into cells, Cell Culture Lysis 5× reagent (Promega) and Luciferase Assay System (Promega) were used in cell lysate preparation and enzyme-substrate reaction for luciferase reporter gene detection. Green fluorescent protein signal and luciferase reporter gene signal were both detected by Tecan Spark™ 10M multimode microplate reader. The inhibition rate of the tested compound on the IL-10 signal pathway reporter gene signal and the half inhibition dose IC50 were both calculated using Microsoft Excel and GraphPad Prism 7.00 software.
U2OS cell line was inoculated in 96-well plate with flat bottom at 5000 cells per well, and cultured overnight at 37° C. and 5% CO2 followed by plasmid transfection. Following the instructions and using X-tremeGENE 9 DNA Transfection Reagent, pCMV3-IL10RA-EGFP and STAT3-Luc Reporter plasmids were co-transfected into the inoculated U2OS cells. After 24 hours of transfection, the tested compound was added respectively for a final concentration of 0, 0.1, 0.3, 1, 3, 10, 30, 100, or 300 nM. After 6 hours of culture at 37° C. and 5% CO2, IL-10 cytokine (Human IL-10 PEPROTECH 200-10-10UG) was added to each well for a final concentration of 10 ng/mL, the well in which neither compound nor cytokine was added was designated as 0% control well. The culture was continued for 24 hours before testing.
Cell lysate was prepared by using Cell Culture Lysis reagent and transferred to 96-well plate with half-well clear bottom. The green fluorescent protein signal value was detected at Ex485/Em520 using Tecan microplate reader, and recorded. After adding to each well the luciferase substrate from Luciferase Assay System, the signal value of luciferase-substrate reaction was immediately detected at 560 nm using Tecan microplate reader, and recorded.
Using Microsoft Excel software, the signal value of luciferase-substrate reaction of each well was calculated and calibrated based on the signal value of green fluorescent protein of each well. […]
In general terms: Reporter assays use an easily measured gene product as a stand-in for the process of interest.

Assay [3] relates to IL-2-induced JAK1/JAK3 signal pathway. The assay is described as follows: IL-2-induced proliferation of KHYG-1 cells (JAK1/JAK3 signal). The settings on record: KHYG-1 cell proliferation, IL-2 10 ng/mL, 72 hours, read-out: Inhibition activity IC50 on IL-2-induced JAK1/JAK3 signal pathway. Put shortly: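 KHYG-1 NK lymphoma cells were cultured with IL-2 and test compound at various doses for 72 h at 37 °C and 5% CO2, and proliferation was read with alamarBlue fluorescence. Inhibition was normalized to wells without compound or cytokine (0%) and IL-2 wells without compound (100%), and C50 was derived from the dose-inhibition data.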

Our source for the IC50 values is patent publication US20240101548A1, “HYDROXAMATE COMPOUND, PREPARATION METHOD THEREFOR AND APPLICATION THEREOF” (SHENZHEN CHIPSCREEN BIOSCIENCES CO., LTD., priority 2020, published 2024).

Where two headings read alike, the source gives them in different places.

On to `CONC(=O)c1cnc(Nc2cc(C)c(F)cn2)cc1Nc1ccccc1N(C)S(C)(=O)=O` [Example 44, 6-((5-fluoro-4-methylpyridin-2-yl)amino)-N-methoxy-4-((2-(N-methylmethanesulfonamido)phenyl)amino)nicotinamide], for which the IC50 in assay [1] (Homo sapiens, UT7) is over 10 µM; in assay [2] (Homo sapiens, U2OS) it was 0.00104 µM; in assay [3] (Homo sapiens) it was over 10 µM.

`CONC(=O)c1cnc(Nc2cc(C)nc(C)n2)cc1Nc1ccccc1N(C)S(C)(=O)=O` [Example 45]: the IC50 in assay [1] (Homo sapiens, UT7) was over 10 µM; in assay [2] (Homo sapiens, U2OS), 0.000855 µM; in assay [3] (Homo sapiens) it was over 10 µM.

As to `CONC(=O)c1cnc(Nc2ccc(F)cn2)cc1Nc1ccc(Cl)cc1N(C)S(C)(=O)=O` [Example 46, 4-((4-chloro-2-(N-methylmethanesulfonamido)phenyl)amino)-6-((5-fluoropyridin-2-yl)amino)-N-methoxy nicotinamide], the IC50 was over 10 µM in assay [1] (Homo sapiens, UT7); 0.00109 µM in assay [2] (Homo sapiens, U2OS); over 10 µM in assay [3] (Homo sapiens).

With `CONC(=O)c1cnc(Nc2cccc(F)n2)cc1Nc1ccc(Cl)cc1N(C)S(C)(=O)=O` [Example 47, 4-((4-chloro-2-(N-methylmethanesulfonamido)phenyl)amino)-6-((6-fluoropyridin-2-yl)amino)-N-methoxy nicotinamide], the IC50 in assay [1] (Homo sapiens, UT7) is over 10 µM; in assay [2] (Homo sapiens, U2OS) it was 0.00134 µM; in assay [3] (Homo sapiens), over 10 µM.

On to `CONC(=O)c1cnc(Nc2ccc(F)cn2)cc1Nc1ccc(C)nc1N(C)S(C)(=O)=O` [Example 60], for which the IC50 in assay [1] (Homo sapiens, UT7) is over 10 µM; in assay [2] (Homo sapiens, U2OS), 0.00115 µM; in assay [3] (Homo sapiens) it was over 10 µM.

Take `CONC(=O)c1cnc(Nc2ccc(F)cn2)cc1Nc1ccc(OCC2CC2)cc1N(C)S(C)(=O)=O` [Example 61, 4-((4-(cyclopropylmethoxy)-2-(N-methylmethanesulfonamido)phenyl)amino)-6-((5-fluoropyridin-2-yl)amino)-N-methoxy nicotinamide]: the IC50 in assay [1] (Homo sapiens, UT7) was over 10 µM; in assay [2] (Homo sapiens, U2OS), 0.0017 µM; in assay [3] (Homo sapiens), over 10 µM.

As to `CONC(=O)c1cnc(Nc2cccc(F)n2)cc1Nc1ccc(OCC2CC2)cc1N(C)S(C)(=O)=O` [Example 62, 4-((4-(cyclopropylmethoxy)-2-(N-methylmethanesulfonamido)phenyl)amino)-6-((6-fluoropyridin-2-yl)amino)-N-methoxy nicotinamide], the IC50 is over 10 µM in assay [1] (Homo sapiens, UT7); 0.00129 µM in assay [2] (Homo sapiens, U2OS); over 10 µM in assay [3] (Homo sapiens).

Turning to `CONC(=O)c1cnc(NC(=O)C2CC2)cc1Nc1ccc(OCC2CC2)cc1N(C)S(C)(=O)=O` [Example 63, 6-(cyclopropylcarboxamido)-4-((4-(cyclopropylmethoxy)-2-(N-methylmethanesulfonamido)phenyl)amino)-N-methoxy nicotinamide], the IC50 is over 10 µM in assay [1] (Homo sapiens, UT7); 0.000865 µM in assay [2] (Homo sapiens, U2OS); over 10 µM in assay [3] (Homo sapiens).

As for `[2H]C([2H])([2H])ONC(=O)c1cnc(Nc2cccc(F)n2)cc1Nc1ccc(C2CC2)cc1N(C)S(C)(=O)=O` [Example 68, 4-((4-cyclopropyl-2-(N-methylmethanesulfonamido)phenyl)amino)-6-((6-fluoropyridin-2-yl)amino)-N-(methoxy-d3)nicotinamide], the IC50 in assay [1] (Homo sapiens, UT7) was over 10 µM; in assay [2] (Homo sapiens, U2OS) it was 0.00131 µM; in assay [3] (Homo sapiens), over 10 µM.

For `CONC(=O)c1cnc(NC(=O)C2CC2)cc1Nc1cccc(-c2ncn(C)n2)c1OC` [Example 69, 6-(cyclopropylcarboxamido)-N-methoxy-4-((2-methoxy-3-(1-methyl-1H-1,2,4-triazol-3-yl)phenyl)amino)-nicotinamide], the IC50 in assay [1] (Homo sapiens, UT7) is over 10 µM; in assay [2] (Homo sapiens), 0.00278 µM; in assay [3] (Homo sapiens), over 10 µM.

As for `CONC(=O)c1cnc(NC(=O)C2CC2)cc1Nc1ccc(F)cc1N(C)S(C)(=O)=O` [Example 70, 6-(cyclopropylcarboxamido)-4-((4-fluoro-2-(N-methylmethanesulfonamido)phenyl)amino)-N-methoxy nicotinamide], the IC50 in assay [1] (Homo sapiens, UT7) is over 10 µM; in assay [2] (Homo sapiens) it was 0.00244 µM; in assay [3] (Homo sapiens), over 10 µM.

For the molecule `CONC(=O)c1cnc(NC(=O)C2CC2)cc1Nc1ccc(Cl)cc1N(C)S(C)(=O)=O` [Example 79, 4-((4-chloro-2-(N-methylmethanesulfonamido)phenyl)amino)-6-(cyclopropylcarboxamido)-N-methoxy nicotinamide], the IC50 was over 10 µM in assay [1] (Homo sapiens, UT7); 0.000889 µM in assay [2] (Homo sapiens, U2OS); over 10 µM in assay [3] (Homo sapiens).

With `CONC(=O)c1cnc(Nc2ccc(F)cn2)cc1Nc1ccc(Cl)cc1N(C)S(C)(=O)=O` [Example 80, 4-((4-chloro-2-(N-methylmethanesulfonamido)phenyl)amino)-6-((5-fluoropyridin-2-yl)amino)-N-methoxy nicotinamide], the values for the IC50 in assay [1], in assay [2] and in assay [3] were over 10 µM, 0.000961 µM and over 10 µM, respectively.

As for `CONC(=O)c1cnc(NC(=O)C2CC2)cc1Nc1ccc(C)cc1N(C)S(C)(=O)=O` [Example 81, 6-(cyclopropylcarboxamido)-N-methoxy-4-((4-methyl-2-(N-methylmethanesulfonamido)phenyl)amino)nicotinamide], the IC50 is over 10 µM in assay [1] (Homo sapiens, UT7); 0.0015 µM in assay [2] (Homo sapiens); over 10 µM in assay [3] (Homo sapiens).

Take `CCONC(=O)c1cnc(NC(=O)C2CC2)cc1Nc1ccccc1N(C)S(C)(=O)=O` [Example 90, 6-(cyclopropylcarboxamido)-N-ethoxy-4-((2-(N-methylmethanesulfonamido)phenyl)amino)nicotinamide]: the IC50 in assay [1] (Homo sapiens, UT7) was over 10 µM; in assay [2] (Homo sapiens, U2OS), 0.0014 µM; in assay [3] (Homo sapiens), over 10 µM.

With `CP(C)(=O)c1ccccc1Nc1cc(NC(=O)C2CC2)ncc1C(N)=O` [Example 93, 6-(cyclopropylcarboxamido)-4-((2-(dimethylphosphoryl)phenyl)amino)nicotinamide], the IC50 in assay [1] (Homo sapiens, UT7) is over 10 µM; in assay [2] (Homo sapiens, U2OS), 0.279 µM; in assay [3] (Homo sapiens), over 10 µM.

For the molecule `CCONC(=O)c1cnc(Nc2ccc(F)cn2)cc1Nc1ccc(C2CC2)cc1N(C)S(C)(=O)=O` [Example 95, 4-((4-cyclopropyl-2-(N-methylmethanesulfonamido)phenyl)amino)-N-ethoxy-6-((5-fluoropyridin-2-yl)amino)nicotinamide], the IC50 in assay [1] (Homo sapiens, UT7) was over 10 µM; in assay [2] (Homo sapiens, U2OS) it was 0.00228 µM; in assay [3] (Homo sapiens), over 10 µM.
